Measured values taken from the CheMixHub viscosity set.

Assay: xn = mol fraction of the nth substance listed

Clc1ccccc1Cl + CCNc1ccccc1
viscosity [mPa·s], 101 kPa
Settings	303.15 K	308.15 K
x2 = 0.0789	1.286	1.19
x2 = 0.1156	1.309	1.21
x2 = 0.1659	1.338	1.234
x2 = 0.2569	1.391	1.277
x2 = 0.3287	1.43	1.309
x2 = 0.3968	1.467	1.339
x2 = 0.4925	1.516	1.379
x2 = 0.5421	1.541	1.399
x2 = 0.6325	1.584	1.434
x2 = 0.6897	1.611	1.454
x2 = 0.7659	1.646	1.48
x2 = 0.8425	1.678	1.508
x2 = 0.9121	1.709	1.531

C=COC(C)=O + CCO
303.15 K, 101.33 kPa
Settings	viscosity [mPa·s]
x1 = 0.0998	0.787
x1 = 0.2001	0.651
x1 = 0.2995	0.564
x1 = 0.4007	0.501
x1 = 0.5002	0.457
x1 = 0.599	0.425
x1 = 0.7013	0.402
x1 = 0.8005	0.386
x1 = 0.9002	0.378

CC(C)c1ccccc1 + CCO
viscosity [mPa·s], 101 kPa
Settings	x1 = 0.0663	x1 = 0.1236	x1 = 0.2015	x1 = 0.2971	x1 = 0.4052	x1 = 0.5656	x1 = 0.7293
298.15 K	1.036	0.982	0.926	0.878	0.836	0.796	0.764
308.15 K	0.897	0.86	0.81	0.753	0.7	0.653	0.64

CCC(CC)CO + CCO
298.15 K, 101.33 kPa
Settings	viscosity [mPa·s]
x2 = 0.1055	5.144
x2 = 0.2003	4.502
x2 = 0.3067	3.844
x2 = 0.4044	3.291
x2 = 0.503	2.777
x2 = 0.6076	2.35
x2 = 0.6966	1.972
x2 = 0.8051	1.617
x2 = 0.9036	1.345

CCCCOC(C)=O + CCO
viscosity [mPa·s], 101 kPa
Settings	x1 = 0.0995	x1 = 0.1987	x1 = 0.2996	x1 = 0.4023	x1 = 0.4982	x1 = 0.5987	x1 = 0.693	x1 = 0.7968	x1 = 0.9004
298.15 K	0.937	0.835	0.765	0.71	0.668	0.647	0.639	0.641	0.648
303.15 K	0.871	–	0.712	0.663	–	0.612	0.61	0.616	0.621
308.15 K	0.797	0.719	0.657	0.621	0.591	0.582	0.582	0.582	0.587
313.15 K	0.734	0.671	0.621	0.591	0.563	0.558	0.555	0.562	–

CCCN + CCO
Settings	viscosity [mPa·s]
298.15 K, 100 kPa, x2 = 0.0515	0.3851
298.15 K, 100 kPa, x2 = 0.098	0.4053
298.15 K, 100 kPa, x2 = 0.2026	0.4571
298.15 K, 100 kPa, x2 = 0.2763	0.4993
298.15 K, 100 kPa, x2 = 0.3874	0.5717
298.15 K, 100 kPa, x2 = 0.4986	0.6539
298.15 K, 100 kPa, x2 = 0.6013	0.7371
298.15 K, 100 kPa, x2 = 0.7485	0.865
298.15 K, 100 kPa, x2 = 0.7991	0.9101
298.15 K, 100 kPa, x2 = 0.8981	0.9984
298.15 K, 100 kPa, x2 = 0.961	1.052
303.15 K, 101.33 kPa, x1 = 0.1084	0.9336
303.15 K, 101.33 kPa, x1 = 0.2091	0.8629
303.15 K, 101.33 kPa, x1 = 0.3178	0.7773
303.15 K, 101.33 kPa, x1 = 0.4096	0.7051
303.15 K, 101.33 kPa, x1 = 0.5111	0.6253
303.15 K, 101.33 kPa, x1 = 0.6177	0.5566
303.15 K, 101.33 kPa, x1 = 0.7059	0.5029
303.15 K, 101.33 kPa, x1 = 0.8061	0.4453
303.15 K, 101.33 kPa, x1 = 0.901	0.3982
313.15 K, 101.33 kPa, x1 = 0.1084	0.7854
313.15 K, 101.33 kPa, x1 = 0.2091	0.7216
313.15 K, 101.33 kPa, x1 = 0.3178	0.6541
313.15 K, 101.33 kPa, x1 = 0.4096	0.5979
313.15 K, 101.33 kPa, x1 = 0.5111	0.5352
313.15 K, 101.33 kPa, x1 = 0.6177	0.475
313.15 K, 101.33 kPa, x1 = 0.7059	0.4325
313.15 K, 101.33 kPa, x1 = 0.8061	0.3864
313.15 K, 101.33 kPa, x1 = 0.901	0.3474

Oc1ccccc1Cl + CCO
Settings	viscosity [mPa·s]
298.15 K, 101 kPa, x1 = 0.5	1.452

Oc1ccccc1Cl + CCOCCO
viscosity [mPa·s], 101 kPa
Settings	x1 = 0.0961	x1 = 0.193	x1 = 0.2907	x1 = 0.3894	x1 = 0.4889	x1 = 0.5893	x1 = 0.6906	x1 = 0.7928	x1 = 0.8959
303.15 K	2.185	2.825	3.45	3.996	4.376	4.53	4.41	4.05	3.486
308.15 K	1.948	2.453	2.949	3.365	3.66	3.784	3.706	3.43	3.005
313.15 K	1.725	2.133	2.524	2.868	3.106	3.215	3.17	2.974	2.664
318.15 K	1.567	1.887	2.19	2.449	2.63	2.724	2.702	2.57	2.341
